Some test systems named below: DMS 114 small cell lung; DMS 273 small cell lung; HCT-15 colon; HOP-18 NSCLC; HT29 colon; KM20L2 colon; LXFL 529 NSCLC; M19-MEL melanoma; MOLT-4 leukemia; SNB-19 CNS; SW-620 colon; UO-31 renal; XF 498 CNS.
Holding throughout (assay): inhibition of tumour cell growth, NCI panel, 48 h

The structures appear in SMILES notation.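 1) Cells in 96-well plates. 2) Compound, 48 h, 5 concentrations. 3) Linear interpolation between surrounding doses. 4) Unreached endpoint = highest concentration. TGI marks complete inhibition of growth.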

Turning to `CCCCCCCCCCCCCCCC(=O)OCC1OC(n2cc(F)c(=O)[nH]c2=O)C(NC(=O)OCc2ccccc2)C(O)C1O` (stereo unspecified), the TGI in the assay on DMS 114 small cell lung worked out at 33.4 µM; with DMS 273 small cell lung it was 32.4 µM; with HCT-15 colon, 34.4 µM; with HOP-18 NSCLC, 37.8 µM; in the assay with HT29 colon it was 36.2 µM; in the assay with KM20L2 colon, 41.9 µM. Besides, the TGI in the assay on LXFL 529 NSCLC was 31.5 µM; with M19-MEL melanoma, 40.5 µM; in the assay on MOLT-4 leukemia it was 38.3 µM; in the assay on SNB-19 CNS it was 32.4 µM; in the assay with SW-620 colon it was 73 µM; in the assay with UO-31 renal, 35.2 µM. Further, the TGI in the assay on XF 498 CNS turned out to be 31.1 µM.
Consider `O=C1C=CC2(O)OCC3C=C4O[C@@H]5OC6(CCCCC6)O[C@@H]5C4[C@@H]2[C@@H]13` (stereo partly specified), for which the TGI in the assay with DMS 114 small cell lung was 69.2 µM; with DMS 273 small cell lung, over 100 µM; with HCT-15 colon, 58.7 µM; in the assay on HOP-18 NSCLC, over 100 µM; in the assay with HT29 colon, 50.9 µM; with KM20L2 colon, over 100 µM. The TGI was 29.7 µM with LXFL 529 NSCLC; 54.9 µM in the assay with M19-MEL melanoma; 70.5 µM in the assay with MOLT-4 leukemia; over 100 µM in the assay with SNB-19 CNS; 71.4 µM with SW-620 colon; 37.3 µM with UO-31 renal. The same compound registered a TGI in the assay on XF 498 CNS of 72.6 µM.
Consider `COc1ccccc1/C=C(\NC(=O)c1ccccc1)c1nc2ccc(Cl)cc2[nH]1`, for which the TGI with DMS 114 small cell lung was 52.7 µM; with DMS 273 small cell lung, over 100 µM; in the assay with HCT-15 colon it was over 100 µM; with HOP-18 NSCLC, 82.6 µM; in the assay with HT29 colon it was over 100 µM; with KM20L2 colon, over 100 µM. The TGI is 62.9 µM with LXFL 529 NSCLC; over 100 µM in the assay with M19-MEL melanoma; 54.9 µM with MOLT-4 leukemia; over 100 µM in the assay with SNB-19 CNS; over 100 µM in the assay with SW-620 colon; 46.6 µM in the assay with UO-31 renal. Besides, the TGI with XF 498 CNS came to 89.5 µM.
Regarding `CC(C)N(C(=O)C12C3C4C1C1C4(C#N)C3C12C(=O)O)C(C)C` (stereo unspecified), the TGI is over 100 µM in the assay with DMS 114 small cell lung; over 100 µM in the assay on DMS 273 small cell lung; over 68.2 µM with HCT-15 colon; over 100 µM in the assay on HOP-18 NSCLC; over 100 µM with HT29 colon; over 100 µM in the assay on KM20L2 colon. Also, the TGI with LXFL 529 NSCLC, with M19-MEL melanoma, in the assay on MOLT-4 leukemia, with SNB-19 CNS, with SW-620 colon and in the assay with UO-31 renal was over 100 µM each time. Besides, the TGI in the assay with XF 498 CNS is over 100 µM.
On to `CN1CCCc2nc3ccccc3n2C1`, for which the TGI with DMS 114 small cell lung, in the assay with DMS 273 small cell lung, with HCT-15 colon, in the assay on HOP-18 NSCLC, with HT29 colon and in the assay with KM20L2 colon was over 100 µM each time. In addition, the TGI in the assay with LXFL 529 NSCLC, with M19-MEL melanoma, in the assay on MOLT-4 leukemia, in the assay with SNB-19 CNS, in the assay with SW-620 colon and in the assay with UO-31 renal was over 100 µM throughout. Also, in the assay on XF 498 CNS, the TGI was over 100 µM.
Turning to `O=c1c2ccccc2nc(-c2cccc(Cl)c2)n1NC1OC(CO)C(O)C(O)C1O` (stereo unspecified), the TGI with DMS 114 small cell lung, in the assay on DMS 273 small cell lung, in the assay on HCT-15 colon, with HOP-18 NSCLC, in the assay with HT29 colon and with KM20L2 colon was over 100 µM in each case. In addition, the TGI in the assay on LXFL 529 NSCLC, in the assay with M19-MEL melanoma, in the assay with MOLT-4 leukemia, in the assay with SNB-19 CNS, in the assay with SW-620 colon and in the assay with UO-31 renal was over 100 µM throughout. Moreover, in the assay on XF 498 CNS, the TGI was over 100 µM.
For the compound `CCCCCCCCCC1CC(=O)OC23CCCC(=O)C12O3` (stereo unspecified), the TGI in the assay with DMS 114 small cell lung, in the assay on DMS 273 small cell lung, in the assay on HCT-15 colon, in the assay on HOP-18 NSCLC, in the assay with HT29 colon and with KM20L2 colon was over 100 µM each time. For the same compound, the TGI was over 100 µM in the assay on LXFL 529 NSCLC; over 100 µM in the assay on M19-MEL melanoma; 71.4 µM with MOLT-4 leukemia; over 100 µM in the assay with SNB-19 CNS; over 100 µM in the assay with SW-620 colon; over 100 µM with UO-31 renal. The compound also returned a TGI with XF 498 CNS of over 100 µM.
